Assay results published in ChEMBL document CHEMBL3137667, “[Drug-induced liver injury; fourteenth updated edition of the bibliographic database of liver injuries and related drugs]” (Gastroenterol Clin Biol, 2004).

Key:
[1] = human
[2] = human; remark: listed apart in the source
[3] = human; remark: listed apart in the source
[4] = human; remark: listed apart in the source
[5] = human, serum
[6] = human, serum; remark: listed apart in the source
[7] = human; remark: listed apart in the source
[8] = Highest frequency of moderate liver toxicity observed during clinical trials, expressed as a percentage. [column '% BIOL' in source]; details: human
[9] = Times to onset, minimal and maximal, observed in the indexed observations. [column 'DELAI' in source]; details: human
[10] = human; remark: listed apart in the source
[11] = human; remark: listed apart in the source
[12] = human; remark: listed apart in the source
[13] = human, serum, 4383 h
[14] = Highest frequency of acute liver toxicity observed during clinical trials, expressed as a percentage. [column '% AIGUE' in source]; details: human
[15] = human; remark: listed apart in the source
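Throughout, for Hepatotoxicity (association with vascular disease): count of indexed literature references reporting vascular liver injury in humans, e.g. peliosis hepatitis, hepatic veno-occlusive disease or Budd-Chiari syndrome.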
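Throughout, for Hepatotoxicity (benign tumour): value is a count of indexed literature references citing a benign tumour confirmed by histopathology.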
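Throughout, for Hepatotoxicity (choleostasis): human cholestatic liver injury, shown by histopathology or by peak ALT or AST elevation over alkaline phosphatase ratio below 2, value counts indexed literature reports.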
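Throughout, for Hepatotoxicity (chronic liver disease): chronic liver injury confirmed by histopathology or persistently raised serum aminotransferase activity beyond 6 months, value given as the count of indexed literature references.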
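Throughout, for Hepatotoxicity (cirrhosis): value is a count of indexed literature references reporting cirrhosis confirmed by histopathology.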
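Throughout, for Hepatotoxicity (cytolytic): human cytolytic liver injury, shown by histopathology or by a ratio above 5 of peak ALT or AST elevation to alkaline phosphatase elevation, value counts indexed references.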
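Throughout, for Hepatotoxicity (granulomatous hepatitis): value is a count of indexed literature references reporting granulomatous liver disease confirmed by histopathology.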
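Throughout, for Hepatotoxicity (malignant tumour): malignant tumour confirmed by histopathology, value gives the count of indexed literature references reporting it.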
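Throughout, for Hepatotoxicity (severe hepatitis): human clinical data: severe hepatitis, meaning potentially life-threatening liver failure or clinically observed cases, the value counts how many indexed literature references report it.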
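Throughout, for Hepatotoxicity (steatosis): steatosis confirmed by histopathology, value is the count of indexed references.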

Compound | Hepatotoxicity (benign tumour) [1] | Hepatotoxicity (association with vascular disease) [2] | Hepatotoxicity (cirrhosis) [3] | Hepatotoxicity (cytolytic) [4] | Hepatotoxicity (moderate) [5] | Hepatotoxicity (acute) [6] | Hepatotoxicity (malignant tumour) [7] | Hepatotoxicity (moderate) [8] | Hepatotoxicity (time to onset) [9] | Hepatotoxicity (severe hepatitis) [10] | Hepatotoxicity (granulomatous hepatitis) [11] | Hepatotoxicity (choleostasis) [12] | Hepatotoxicity (chronic liver disease) [13] | Hepatotoxicity (acute) [14] | Hepatotoxicity (steatosis) [15] | further results
CO/N=C1\CN(c2nc3c(cc2F)c(=O)c(C(=O)O)cn3C2CC2)CC1CN (configuration not stated) [GEMIFLOXACIN] | 0 | 0 | 0 | 0 | 4 | 0 | 0 | 0.3% | 6 days | 0 | 0 | 0 | 0 | 0% | 0 | –
CC(=O)Nc1ccc(/C=N/NC(N)=S)cc1 [AMITHIOZONE] | 0 | 0 | 1 | 5 | 4 | 6 | 0 | 18% | 1.5 months - 6 months | 2 | 0 | 2 | 0 | 2.5% | 2 | –
CCN(CC)CCCC(C)Nc1ccnc2cc(Cl)ccc12 (configuration not stated) [CHLOROQUINE] | 0 | 0 | 0 | 4 | 7 | 8 | 0 | 0% | 1 day - 4 months | 0 | 1 | 1 | 0 | 0% | 0 | –
NC(=O)CCC/N=C(\c1ccc(Cl)cc1)c1cc(F)ccc1O [PROGABIDE] | 0 | 0 | 0 | 4 | 6 | 6 | 0 | 30% | 2 weeks - 6 months | 4 | 0 | 0 | 0 | 3.4% | 0 | –
CC(C)n1c(/C=C/C(O)CC(O)CC(=O)O)c(-c2ccc(F)cc2)c2ccccc21 (configuration not stated) [FLUVASTATIN] | 0 | 0 | 0 | – | 36 | – | 0 | – | 8 months | – | – | – | 0 | – | 0 | Hepatotoxicity (cytolytic) ([4]; Liver): 3; Hepatotoxicity (moderate) ([8]; Liver): 55%; Hepatotoxicity (severe hepatitis) ([10]; Liver): 0; Hepatotoxicity (granulomatous hepatitis) ([11]; Liver): 0; Hepatotoxicity (choleostasis) ([12]; Liver): 2; Hepatotoxicity (acute) ([14]; Liver): 1.2%
COc1cc2c(cc1OC)C(=O)C(CC1CCN(Cc3ccccc3)CC1)C2 (configuration not stated) [DONEPEZIL] | 0 | – | 0 | 0 | 0 | 2 | 0 | 0% | 10 days - 12 days | 0 | 0 | 2 | 0 | 0% | 0 | –
C[C@@H](c1ncncc1F)[C@](O)(Cn1cncn1)c1ccc(F)cc1F [VORICONAZOLE] | 0 | 0 | 0 | 1 | 10 | – | 0 | 9.5% | 1 day - 1 year | 1 | 0 | 1 | 0 | 0% | 0 | –
COC(=O)C1=C(C)NC(C)=C(C(=O)OCCN(C)Cc2ccccc2)C1c1cccc([N+](=O)[O-])c1 (configuration not stated) [NICARDIPINE] | 0 | 0 | 0 | 0 | 6 | – | 0 | 6.7% | 2 months | 0 | 0 | 0 | 0 | 0% | 1 | –
O=C(NCC1CCCCN1)c1cc(OCC(F)(F)F)ccc1OCC(F)(F)F (configuration not stated) [FLECAINIDE] | 0 | 0 | 0 | 1 | 3 | – | 0 | 36.7% | 2 days - 1 month | 0 | 0 | 2 | 0 | 0% | 0 | –
COCc1c(C(C)C)nc(C(C)C)c(/C=C/[C@@H](O)C[C@@H](O)CC(=O)O)c1-c1ccc(F)cc1 [CERIVASTATIN] | 0 | 0 | 0 | 1 | – | – | 0 | – | 3 weeks | – | 0 | 1 | 0 | – | 0 | –
Cc1nnc2n1-c1ccc(Cl)cc1C(c1ccccc1Cl)=NC2 [TRIAZOLAM] | 0 | 0 | 0 | 1 | 1 | – | 0 | – | 4 months | – | 0 | 2 | 0 | – | 0 | Hepatotoxicity (moderate) ([8]; Liver): 0%; Hepatotoxicity (severe hepatitis) ([10]; Liver): 2
CN(C)CCCC1(c2ccc(F)cc2)OCc2cc(C#N)ccc21 (configuration not stated) [CITALOPRAM] | 0 | 0 | 0 | 1 | 2 | – | 0 | 5.3% | 4 weeks - 2 months | 1 | 0 | 1 | 0 | 0% | 0 | –
CC(C(=O)O)c1cccc(C(=O)c2ccccc2)c1 (configuration not stated) [KETOPROFEN] | 0 | 0 | 0 | 3 | 3 | – | 0 | 2.5% | 2 days - 2 weeks | 2 | 0 | 5 | 0 | 0% | 3 | –
O=C(O)CCc1nc(-c2ccccc2)c(-c2ccccc2)o1 [OXAPROZIN] | 0 | 0 | 0 | 2 | 4 | – | 0 | 20% | 2 weeks - 6 months | 1 | 0 | 0 | 0 | 0.1% | 0 | –
Cc1ccc(NC(=O)c2ccc(CN3CCN(C)CC3)cc2)cc1Nc1nccc(-c2cccnc2)n1 [IMATINIB] | 0 | 0 | 0 | 1 | 5 | – | 0 | – | 11 days - 12 days | – | 0 | 0 | 0 | – | 0 | Hepatotoxicity (moderate) ([8]; Liver): 100%; Hepatotoxicity (severe hepatitis) ([10]; Liver): 1
CCCN[C@H]1CCc2nc(N)sc2C1 [PRAMIPEXOLE] | 0 | 0 | 0 | – | 1 | 0 | 0 | – | – | – | – | – | 0 | – | 0 | Hepatotoxicity (cytolytic) ([4]; Liver): 0; Hepatotoxicity (moderate) ([8]; Liver): 7.1%; Hepatotoxicity (severe hepatitis) ([10]; Liver): 0; Hepatotoxicity (granulomatous hepatitis) ([11]; Liver): 0; Hepatotoxicity (choleostasis) ([12]; Liver): 0; Hepatotoxicity (acute) ([14]; Liver): 0%
